# Data as given in patent US20260265299A1, “SYNTHESIS OF BICYCLE TOXIN CONJUGATES, AND INTERMEDIATES THEREOF” (priority 2023, published 2026).
# Starred links: 1 amine or outer side, 2 acyl side, 3 side chain; linkers in the order of their positions; H or OH if unused. Non-standard residues stand in square brackets, D forms with d. Residues, ends and D or L forms follow the SMILES beside them. ξ: configuration not given here. *: point of attachment. Dolaproine = CO[C@@H]([C@@H]1CCCN1)[C@@H](C)C(=O)O; ξDil = CC[C@H](C)C([C@@H](CC(=O)[*:2])OC)N(C)[*:1]; PABC = O=C(OCc1ccc(N[*:1])cc1)[*:2]; Glutaryl = O=C(CCCC(=O)[*:2])[*:1]; X1 = C[C@@H](N*)[C@@H](O)c1ccccc1; Cit = NC(=O)NCCC[C@H](N)C(=O)O; NMeV = CN[C@H](C(=O)O)C(C)C
# Experiments:
# Type in all cases: physicochemical
# [1] = Solubility of gvcMMAE in different solvents (assay in mother liquor); conditions: for Assay in ML (w/w %): 20-30° C., 0.5 h, free acid state
# Excerpt: 3.3.6. Study the Solubility of gvcMMAE in Different Solvents (Table 10)
# Solubility of gvcMMAE (free acid state) in different solvents (THF, DCM, MTBE, n-Heptane, iPrOAc, 1,4-dioxane) were investigated.
# [2] = DVS test (hygroscopicity)
# Description: (Uptake 3.6% water on sorption curve between 40% RH and 80% RH, at 25° C.).
# [3] = Moisture absorption experiment at 60% RH; conditions: 3 days
# Description: 100 mg of gvcMMAE was stood at 60% RH condition to do a moisture absorption experiment. The solid state had no change (The weight changed to 103 mg) after 3 days.
# [4] = Stress test of gvcMMAE at different drying temperature (HPLC); conditions: for HPLC/area % gvcMMAE: dry
# Description: 3.3.13. Stress Test of gvcMMAE at Different Drying Temperature (Table 22 and 23)
# Stress test of gvcMMAE at different drying temperatures was done. According to the result listed below, gvcMMAE was stable at 40° C. for 3 days.
smiles,measurement,setting,value
"CC[C@H](C)C([C@@H](CC(=O)N1CCC[C@H]1[C@H](OC)[C@@H](C)C(=O)N[C@H](C)[C@@H](O)c1ccccc1)OC)N(C)C(=O)[C@@H](NC(=O)[C@H](C(C)C)N(C)C(=O)OCc1ccc(NC(=O)[C@H](CCCNC(N)=O)NC(=O)[C@@H](NC(=O)CCCC(=O)O)C(C)C)cc1)C(C)C (stereo partly drawn) [gvcMMAE, Glutaryl-Val-Cit-PAB-MMAE] (Glutaryl-V[Cit][PABC][NMeV]V[ξDil][Dolaproine]-X1)",Assay in ML (w/w %),"[1]; 1,4-dioxane 20 v",0.22 w/w %
same,Assay in ML (w/w %),[1]; DCM 20 v,0.00 w/w %
same,Assay in ML (w/w %),[1]; MTBE 20 v,0.00 w/w %
same,Assay in ML (w/w %),[1]; N-heptane 20 v,0.00 w/w %
same,Assay in ML (w/w %),[1]; THF 20 v,0.47 w/w %
same,Solubility in solvents (in words),"[1]; THF, DCM, MTBE, n-Heptane, iPrOAc, 1,4-dioxane",insoluble in most solvents
same,Assay in ML (w/w %),[1]; iPrOAc 20 v,0.00 w/w %
same,Hygroscopicity (DVS),[2]; 80% RH at 25° C.,hygroscopic
same,Water uptake on sorption curve,"[2]; between 40% RH and 80% RH, at 25° C.",3.6%
same,Solid state after moisture absorption,[3]; 100 mg,no change
same,Weight after moisture absorption,[3]; starting from 100 mg,103 mg
same,HPLC/area % gvcMMAE,"[4]; 20° C., 3 days",98.62 area %
same,HPLC/area % gvcMMAE,"[4]; 30° C., 3 days",98.65 area %
same,Stability at drying temperature (in words),[4]; 40° C. for 3 days,stable
same,HPLC/area % gvcMMAE,"[4]; 40° C., 3 days",98.61 area %
same,HPLC/area % gvcMMAE,"[4]; 50° C., 3 days",98.52 area %
same,HPLC/area % gvcMMAE,[4]; before stress test,98.54 area %
